Laboratory results reported in patent US9066948B2, “Oxadiazolo[3,2-a]pyrimidines and thiadiazolo[3,2-a]pyrimidines” (THE UNITED STATES OF AMERICA AS REPRESENTED BY THE …, priority 2010, dated 2015).
“And” between values parts separate entries of the source, which are not always exact repeats. Equal entries are not always repeated. Where two headings read alike, the source gives them in different places.

Legend:
WT mouse platelets = assay: ADP-induced platelet aggregation, mouse PRP (Example 45); format: cell-based
Procedure: Blood may be drawn via cardiac puncture from anesthetized Sprague Dawley rats (Taconic, Hudson, N.Y.), WT C57B1/6 mice (Jackson Laboratories, Bar Harbor, Me.), and mice expressing hαIIb/mβ3 and diluted 1:1 with a mixture of 4 parts 0.165 […], pH 7.4 containing 2 mM CaCl2 and 1 mM MgCl2. Blood from consenting human volunteers is obtained from a peripheral vein using a 19 gauge needle and anticoagulated with 1:10 vol 3.8% sodium citrate. Platelet-rich plasma (PRP) may be isolated by centrifugation at 22° C. at 350 g for 10 minutes (rats); 250 g for 2.5 minutes (mice); or 650 g for 4 minutes (human). Mouse PRP samples may be adjusted to 400,000 platelets/μl with the buffer used for dilution and human PRP may be adjusted to 300,000 platelets/μl with platelet-poor plasma. […] Platelet aggregation may be induced by adding to PRP adenosine diphosphate (ADP) at 30 μM (rats and WT mice), 20 or 30 μM (hαIIb/mβ3 mice), or 5 μM (humans), and light transmission may be measured over time in an aggregometer (Kowa AG-10E, Tokyo, Japan) with stirring. Percent inhibition may be calculated by comparing the initial slope of untreated samples to the samples treated with the Compounds of the Invention.

purified αIIbβ3 = biological target: T1, purified αIIbβ3 (Homo sapiens, UniProt P05106+P08514); assay: Extension of purified αIIbβ3 in nanodiscs by negative staining electron microscopy; settings: concentrations up to 10 μM
T1 construct: αIIbβ3 is purified from outdated single donor platelet concentrates obtained from the New York Blood Center; tissue New York Blood Center; host or cells: outdated single donor platelet concentrates
T1 sequence (P08514 32-887 limits assumed): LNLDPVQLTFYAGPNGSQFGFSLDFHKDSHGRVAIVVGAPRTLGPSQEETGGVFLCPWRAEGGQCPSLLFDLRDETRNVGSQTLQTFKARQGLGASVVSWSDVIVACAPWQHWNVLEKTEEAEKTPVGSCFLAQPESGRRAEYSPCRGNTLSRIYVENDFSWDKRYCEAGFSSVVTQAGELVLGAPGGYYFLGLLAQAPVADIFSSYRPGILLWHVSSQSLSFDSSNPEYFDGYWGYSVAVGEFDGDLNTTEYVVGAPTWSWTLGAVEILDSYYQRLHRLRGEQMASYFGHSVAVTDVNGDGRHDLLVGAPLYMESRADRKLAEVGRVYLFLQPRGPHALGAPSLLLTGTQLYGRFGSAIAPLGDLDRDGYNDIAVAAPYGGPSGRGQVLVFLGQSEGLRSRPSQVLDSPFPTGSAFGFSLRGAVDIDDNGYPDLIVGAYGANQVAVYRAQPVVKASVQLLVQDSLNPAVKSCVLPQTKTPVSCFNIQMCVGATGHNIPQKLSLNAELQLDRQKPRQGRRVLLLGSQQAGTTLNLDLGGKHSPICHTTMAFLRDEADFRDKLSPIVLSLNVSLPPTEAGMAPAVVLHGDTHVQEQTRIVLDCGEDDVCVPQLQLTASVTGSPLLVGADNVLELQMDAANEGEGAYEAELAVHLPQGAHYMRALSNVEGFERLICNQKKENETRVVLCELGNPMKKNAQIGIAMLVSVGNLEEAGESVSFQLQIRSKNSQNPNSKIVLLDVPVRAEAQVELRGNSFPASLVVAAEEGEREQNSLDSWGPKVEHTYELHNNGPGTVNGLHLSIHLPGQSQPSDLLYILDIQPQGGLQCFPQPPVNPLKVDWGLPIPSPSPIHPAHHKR
T1 sequence (P08514 891-1039 partner limits assumed): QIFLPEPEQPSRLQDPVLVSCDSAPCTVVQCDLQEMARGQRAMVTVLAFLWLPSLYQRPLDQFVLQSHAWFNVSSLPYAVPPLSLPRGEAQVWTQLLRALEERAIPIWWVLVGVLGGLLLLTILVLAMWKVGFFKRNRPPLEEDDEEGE
T1 sequence (P05106 27-788): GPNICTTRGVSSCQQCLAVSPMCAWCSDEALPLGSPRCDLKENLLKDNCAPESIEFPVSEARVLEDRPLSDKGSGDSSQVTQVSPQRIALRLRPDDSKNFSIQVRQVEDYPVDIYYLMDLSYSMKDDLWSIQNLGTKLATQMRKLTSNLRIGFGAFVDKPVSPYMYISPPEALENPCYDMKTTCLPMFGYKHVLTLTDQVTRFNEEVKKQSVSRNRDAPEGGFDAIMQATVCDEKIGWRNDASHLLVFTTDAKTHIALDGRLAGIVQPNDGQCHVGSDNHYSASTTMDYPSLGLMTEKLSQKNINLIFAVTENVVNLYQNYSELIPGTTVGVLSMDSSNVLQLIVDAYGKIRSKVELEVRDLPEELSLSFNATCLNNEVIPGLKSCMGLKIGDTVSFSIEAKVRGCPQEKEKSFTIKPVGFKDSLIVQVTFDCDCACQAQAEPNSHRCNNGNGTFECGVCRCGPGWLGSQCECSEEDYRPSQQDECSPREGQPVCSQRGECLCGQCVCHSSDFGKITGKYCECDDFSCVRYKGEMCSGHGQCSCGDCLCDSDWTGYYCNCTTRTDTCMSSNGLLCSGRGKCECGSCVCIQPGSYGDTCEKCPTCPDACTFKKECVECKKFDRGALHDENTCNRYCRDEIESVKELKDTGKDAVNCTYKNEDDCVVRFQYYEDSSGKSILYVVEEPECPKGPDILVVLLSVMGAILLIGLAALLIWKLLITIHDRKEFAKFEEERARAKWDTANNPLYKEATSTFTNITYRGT
Procedure: In brief, the His-tagged membrane scaffold protein is prepared as a recombinant protein in E. coli and purified by Nickel affinity chromatography and anion exchange chromatography. Final assembly consists of solubilizing an equimolar mixture of 1,2-dimyristoyl-sn-glycero-3-phosphocholine and 1,2-dimyristoyl-sn-glycero-3-phospho-(1′-rac-glycerol) in octylglucoside and cholate and then adding the purified αIIbβ3. The detergents are removed with macroporous polymeric beads (Bio-Bead SM-2) and then the αIIbβ3 nanodiscs are separated from the empty nanodiscs by gel filtration.
αIIbβ3 nanodiscs are treated with eptifibatide, tirofiban, 2-ethyl-7-(piperazin-1-yl)-5H-[1,3,4]thiadiazolo-[3,2-a]pyrimidin-5-one of U.S. Ser. No. 12/514,286, or the compound of Example 27 of the current invention for 1 hour at room temperature at concentrations up to 100 μM for 2-ethyl-7-(piperazin-1-yl)-5H-[1,3,4]thiadiazolo-[3,2-a]pyrimidin-5-one (a compound claimed in U.S. Ser. No. 12/514,286) and at concentrations up to 10 μM for 2-amino-N-(3-(5-oxo-7-(piperazin-1-yl)-5H-[1,3,4]thiadiazolo[3,2-a]pyrimidin-2-yl)phenyl)acetamide of Example 27. Samples are loaded onto carbon-coated copper grids that are glow-discharged by a carbon coating unit (Edwards; Crowley, UK), and then stained with 2% uranyl acetate, followed by drying. Imaging of αIIbβ3 nanodiscs is performed using a JOEL JEM 100CX transmission electron microscope (Jeol Ltd; Tokyo, Japan) at 80 kV and magnifications of 33,000× and 50,000×. Individual nanodiscs containing αIIbβ3 are manually selected for analysis using Image J (NIH, Bethesda, Md.). The distance from the bottom of the nanodisc to the height of the αIIbβ3 complex (nanodisc-integrin length; NIL) is measured as an indicator of integrin extension. The frequency distribution of NIL values is then analyzed for untreated αIIbβ3 nanodiscs and αIIbβ3 nanodiscs in the presence of different compounds.

hαIIb/mβ3 platelets = assay: ADP-induced aggregation of platelets from mice expressing hαIIb/mβ3 (Example 45); format: cell-based, mouse
Procedure: Blood may be drawn via cardiac puncture from anesthetized Sprague Dawley rats (Taconic, Hudson, N.Y.), WT C57B1/6 mice (Jackson Laboratories, Bar Harbor, Me.), and mice expressing hαIIb/mβ3 and diluted 1:1 with a mixture of 4 parts 0.165 […], pH 7.4 containing 2 mM CaCl2 and 1 mM MgCl2. Blood from consenting human volunteers is obtained from a peripheral vein using a 19 gauge needle and anticoagulated with 1:10 vol 3.8% sodium citrate. Platelet-rich plasma (PRP) may be isolated by centrifugation at 22° C. at 350 g for 10 minutes (rats); 250 g for 2.5 minutes (mice); or 650 g for 4 minutes (human). Mouse PRP samples may be adjusted to 400,000 platelets/μl with the buffer used for dilution and human PRP may be adjusted to 300,000 platelets/μl with platelet-poor plasma. Samples of PRP may be either untreated or incubated for 5 minutes at 37° C. with the Compounds of the Invention (100 μM). Platelet aggregation may be induced by adding to PRP adenosine diphosphate (ADP) at 30 μM (rats and WT mice), 20 or 30 μM (hαIIb/mβ3 mice), or 5 μM (humans), and light transmission may be measured over time in an aggregometer (Kowa AG-10E, Tokyo, Japan) with stirring. Percent inhibition may be calculated by comparing the initial slope of untreated samples to the samples treated with the Compounds of the Invention.

platelets = assay: Platelet aggregation assay: ADP-induced, platelet-rich plasma; format: cell-based, human; settings: for IC50: Homo sapiens, Platelet, n=4
Procedure: […] After 30 seconds in the aggregometer (Kowa AF-10E; Tokyo, Japan) at 37° C. with stirring, ADP (5-20 μM) is added to induce aggregation and the light transmittance is measured for 8 minutes. The initial slopes of aggregation in the presence of different concentrations of the Compound being tested are used to generate an IC50.

αIIbβ3 = biological target: T2, αIIbβ3 (Homo sapiens, UniProt P05106+P08514); assay: Induction of ligand-induced binding site (LIBS) epitopes, flow cytometry of washed platelets; format: cell-based; settings: eptifibatide 10 μM = 100%, Example 27 at 100 μM
T2 construct: Washed platelets are prepared in HBMT containing 2 mM CaCl2/1 mM MgCl2; endogenous in cells; host or cells: washed platelets
T2 sequence (P08514 32-887 limits assumed): as the sequence (P08514 32-887 limits assumed) above
T2 sequence (P08514 891-1039 partner limits assumed): as the sequence (P08514 891-1039 partner limits assumed) above
T2 sequence (P05106 27-788): as the sequence (P05106 27-788) above
Procedure: Washed platelets are prepared in HBMT containing 2 mM CaCl2/1 mM MgCl2. […] Fluorescently labeled monoclonal antibodies (PMI-1, LIBS-1, AP5, or 10E5; Alexa-488 conjugated; Invitrogen) are then added (20 μL, final concentration: 5 μg/mL) and incubated for 30 minutes at 22° C. in the dark, after which samples are diluted 1:10 in HBMT with CaCl2/MgCl2 for analysis by flow cytometry (FACSCalibur; Becton Dickinson, Franklin Lakes, N.J.). Antibody binding is reported as the geometric mean fluorescence intensity; nonspecific binding is determined by adding a 50-fold excess of unlabeled antibody before adding the labeled antibody. The net normalized fluorescence intensity in the presence of eptifibatide (10 μM, 30 min incubation at 22° C.) is assigned the value of 100%

NCC(=O)Nc1cccc(-c2nn3c(=O)cc(N4CCNCC4)nc3s2)c1 [Example 27, 2-amino-N-(3-(5-oxo-7-(piperazin-1-yl)-5H-[1,3,4]thiadiazolo[3,2-a]pyrimidin-2-yl)phenyl)acetamide]
selectivity for human compared to mouse or rat αIIbβ3 (WT mouse platelets): selective for human WIND compared to mouse or rat αIIbβ3
inhibition of mouse platelet aggregation induced by ADP (WT mouse platelets; 1 μM): does not inhibit either mouse or rat platelet aggregation
shift of nanodisc-integrin length (NIL) values / receptor extension (purified αIIbβ3): do not induce receptor extension
inhibition of aggregation of platelets from a mouse expressing hαIIb/mβ3 (hαIIb/mβ3 platelets): essentially completely inhibits the aggregation
potency in inhibiting platelet aggregation relative to 2-ethyl-7-(piperazin-1-yl)-5H-[1,3,4]thiadiazolo-[3,2-a]pyrimidin-5-one (platelets): more than one hundred-fold more potent
IC50 (platelets; PPACK instead of citrate, read-out: IC50, ADP-induced platelet aggregation with PPACK as anticoagulant): 220 nM
IC50 (platelets; citrate anticoagulant, read-out: IC50, ADP-induced platelet aggregation of citrated PRP): 90 ± 20 nM
IC50 with PPACK relative to citrate (platelets; PPACK vs citrate): ~3 fold
AP5 binding, % of the amount in the presence of eptifibatide (αIIbβ3): 18±5% and 18%
LIBS1 binding after 30 min, % of the amount in the presence of eptifibatide (αIIbβ3): 21±3%
PMI-1 binding, % of the amount bound by platelets treated with eptifibatide (αIIbβ3): 82±13%
